Source: patent US9849099B2, “Antimicrobial compounds, compositions and methods of use thereof” (WISCONSIN ALUMNI RESEARCH FOUNDATION, priority 2014, dated 2017)
Converted amounts (≈) assume the structure as drawn. Like-named read-outs stand apart in the source and are kept apart here.

Assays:
Format in all cases: cell-based
[1] = test system: E. coli BW25113; assay: MIC micro-dilution; details: Escherichia coli, LB media, 37° C., 16-18 hours
Protocol: (§1) Luria-Bertani (LB) media (10 g/L tryptone, 10 g/L NaCl, 5 g/L yeast extract, pH 7.0) was used to grow all bacterial strains, except Streptococcus pyogenes. Streptococcus pyogenes was grown in Mueller-Hinton broth containing 5% (v/v) sheep blood. All bacterial cultures were grown at 37° C. All the E. coli strains were grown while shaking at 200 rpm, while clinical pathogens were incubated without shaking.
(§2) The MIC of all the strains was determined in LB media except Streptococcus pyogenes, which was grown in Mueller-Hinton media containing 5% (v/v) sheep blood. The micro-dilution method was utilized in 96-well clear flat-bottom plates (100 μL/well) according to the CLSI guidelines. All strains were grown at 37° C. for 16-18 hours in presence of various concentrations of compound. The MIC was determined by a visual inspection and experiments were performed in triplicate.

[2] = test system: E. coli BW25113 ΔtolC; assay: MIC micro-dilution; details: Escherichia coli, LB media, 37° C., 16-18 hours
Protocol: as §1, §2

[3] = test system: Bacillus subtilis 168; assay: MIC micro-dilution
Protocol: as §1, §2

[4] = test system: broad panel of human pathogens; assay: MIC against the panel of pathogens; details: panel of pathogens
Protocol: as §1, §2

[5] = test system: Salmonella typhimurium; assay: MIC micro-dilution; details: Salmonella enterica
Protocol: as §1, §2

[6] = test system: Enterobacter aerogenes; assay: MIC micro-dilution; details: Klebsiella aerogenes
Protocol: as §1, §2

[7] = test system: Pseudomonas aeruginosa; assay: MIC micro-dilution
Protocol: as §1, §2

[8] = test system: Edwardsiella tarda; assay: MIC micro-dilution
Protocol: as §1, §2

[9] = test system: Klebsiella pneumoniae; assay: MIC micro-dilution
Protocol: as §1, §2

[10] = test system: Vibrio cholerae; assay: MIC micro-dilution
Protocol: as §1, §2

[11] = test system: Staphylococcus aureus; assay: MIC micro-dilution
Protocol: as §1, §2

[12] = test system: Acinetobacter baumannii; assay: MIC micro-dilution
Protocol: as §1, §2

[13] = test system: Shigella boydii; assay: MIC micro-dilution; details: LB media, 37° C., 16-18 hours, read-out: MIC
Protocol: as §1, §2

[14] = test system: Morganella morganii; assay: MIC micro-dilution
Protocol: as §1, §2

[15] = Bacillus subtilis 168, LB media, 37° C., 16-18 hours, read-out: MIC
[16] = Salmonella typhimurium, LB media, 37° C., 16-18 hours, read-out: MIC
[17] = Enterobacter aerogenes, LB media, 37° C., 16-18 hours, read-out: MIC
[18] = LB media, 37° C., 16-18 hours, read-out: MIC

Row | Compound | MIC ([1]; E. coli BW25113, read-out: MIC) [µg/mL] | MIC [2] [µg/mL] | MIC ([1]; BW25113, E. coli BW25113) [µg/mL] | MIC [10] [µg/mL] | MIC [13] [µg/mL] | MIC ([5]; TYPHIMURIUM) [µg/mL] | MIC [6] [µg/mL] | MIC [7] [µg/mL] | MIC [8] [µg/mL] | MIC [9] [µg/mL] | MIC [11] [µg/mL] | MIC [12] [µg/mL] | MIC [14] [µg/mL] | also measured
1 | CCCCCCCCCOc1cccc(CN)c1 [Compound 18] | 9.4 (≈ 37.7 µM) | 4.7 (≈ 18.8 µM) | – | – | – | – | – | – | – | – | – | – | – | MIC [3, 15]: 4.7 µg/mL (≈ 18.8 µM)
2 | CCCCCCCCCOc1ccc(CCN)cc1 [Compound 17] | – | 1.3 (≈ 4.93 µM) | 5.3 (≈ 20.1 µM) | – | – | – | – | – | – | – | – | – | – | MIC ([3]; Bacillus subtilis, 168): 0.66 µg/mL (≈ 2.51 µM)
3 | COc1ccc2c(CCN)c[nH]c2c1 [Compound 6] | – | > 61 | > 61 | – | – | – | – | – | – | – | – | – | – | –
4 | CCCCCCCCCOc1cccc(N)c1 [Compound 19] | > 40 | 10 (≈ 42.5 µM) | – | – | – | – | – | – | – | – | – | – | – | MIC [3, 15]: 40 µg/mL (≈ 170 µM)
5 | COc1ccc2[nH]cc(CCN)c2c1 [Compound 3] | – | > 56 | > 56 | – | – | – | – | – | – | – | – | – | – | –
6 | CCCCCCCCCCOc1ccc2[nH]cc(CCN)c2c1 [Compound 9] | 6.3 (≈ 19.9 µM) | 3.2 (≈ 10.1 µM) | – | 6.3 (≈ 19.9 µM) | 3.2 (≈ 10.1 µM) | – | – | – | – | – | – | – | – | MICs compared with Compound 1 [4]: either the same or 2-fold different from 1; MIC [5, 16]: 6.3 µg/mL (≈ 19.9 µM); MIC [6, 17]: 13 µg/mL (≈ 41.1 µM); MIC [7, 18]: > 101 µg/mL; MIC [8, 18]: 25 µg/mL (≈ 79 µM); MIC [9, 18]: 6.3 µg/mL (≈ 19.9 µM); MIC [11, 18]: 6.3 µg/mL (≈ 19.9 µM); MIC [12, 18]: 6.3 µg/mL (≈ 19.9 µM); MIC [14, 18]: > 101 µg/mL
7 | CCCCCCCCCCCCCCCOc1ccc2[nH]cc(CCN)c2c1 [Compound 12] | – | > 124 | > 124 | > 124 | > 124 | > 124 | > 124 | > 124 | > 124 | > 124 | > 124 | > 124 | > 124 | –
8 | CCCCCCCCCOc1cccc(CCN)c1 [Compound 16] | – | 2.6 (≈ 9.87 µM) | 5.3 (≈ 20.1 µM) | 5.3 (≈ 20.1 µM) | 5.3 (≈ 20.1 µM) | 5.3 (≈ 20.1 µM) | 5.3 (≈ 20.1 µM) | 21 (≈ 79.7 µM) | 5.3 (≈ 20.1 µM) | 5.3 (≈ 20.1 µM) | 5.3 (≈ 20.1 µM) | 5.3 (≈ 20.1 µM) | 11 (≈ 41.8 µM) | MIC ([3]; Bacillus subtilis, 168): 0.66 µg/mL (≈ 2.51 µM)
9 | CCCCCCCCCOc1ccc2[nH]cc(CCNC(=O)OC(C)C)c2c1 [Compound 13] | > 130 | > 130 | – | > 130 | > 130 | – | – | – | – | – | – | – | – | MIC [5, 16]: > 130 µg/mL; MIC [6, 17]: > 130 µg/mL; MIC [7, 18]: > 130 µg/mL; MIC [8, 18]: > 130 µg/mL; MIC [9, 18]: > 130 µg/mL; MIC [11, 18]: > 130 µg/mL; MIC [12, 18]: > 130 µg/mL; MIC [14, 18]: > 130 µg/mL; MIC [3, 15]: > 130 µg/mL
10 | CCCCOc1ccc2[nH]cc(CCN)c2c1 [Compound 7] | – | > 74 | > 74 | > 74 | > 74 | > 74 | > 74 | > 74 | > 74 | > 74 | > 74 | > 74 | > 74 | –
11 | Cc1[nH]c2ccc(O)cc2c1CCN [Compound 5] | – | > 61 | > 61 | – | – | – | – | – | – | – | – | – | – | –
12 | CCCCCCCCCOc1ccc2[nH]cc(CC[N+](C)(C)C)c2c1 [Compound 15] | – | 6.5 | 52 | > 104 | 26 | 26 | 52 | 52 | 26 | 26 | 6.5 | 52 | > 104 | MIC ([3]; Bacillus subtilis, 168): 52 µg/mL
13 | NCCc1c[nH]c2ccccc12 [Compound 4] | – | > 61 | > 61 | – | – | – | – | – | – | – | – | – | – | –
14 | NCCc1c[nH]c2ccc(O)cc12 [Compound 2] | – | > 51 | > 51 | – | – | – | – | – | – | – | – | – | – | –
15 | CCCCCCOc1ccc2[nH]cc(CCN)c2c1 [Compound 8] | – | 42 (≈ 161 µM) | 42 (≈ 161 µM) | 42 (≈ 161 µM) | 42 (≈ 161 µM) | 42 (≈ 161 µM) | 42 (≈ 161 µM) | > 83 | 42 (≈ 161 µM) | 42 (≈ 161 µM) | 42 (≈ 161 µM) | 42 (≈ 161 µM) | > 83 | –
16 | CCCCCCCCCOc1ccc2[nH]ccc2c1 [Compound 14] | > 83 | > 83 | – | > 83 | > 83 | – | – | – | – | – | – | – | – | MIC [5, 16]: > 83 µg/mL; MIC [6, 17]: > 83 µg/mL; MIC [7, 18]: > 83 µg/mL; MIC [8, 18]: > 83 µg/mL; MIC [9, 18]: > 83 µg/mL; MIC [11, 18]: > 83 µg/mL; MIC [12, 18]: > 83 µg/mL; MIC [14, 18]: > 83 µg/mL; MIC [3, 15]: > 83 µg/mL
